These are literature values, as cited in US20260131008A1, “HYALURONIC ACID BASED DRUG DELIVERY SYSTEMS” (priority 2023, published 2026).

The conditions of the data set: in vivo.

For hyaluronic acid [Uncrosslinked HA], the vitreal half-life entry is listed as “weeks” and the “vitreal half-life, shortest estimates” value was 48 h.
